Drawing on patent publication US20260315464A1, “COMPOSITIONS, METHODS, AND SYSTEMS FOR MODULATING SPLICING OF MSH3” (REVIR THERAPEUTICS, INC., priority 2023, published 2026), this text covers mrna remaining for 18 compounds.

This experiment concerns MSH3. Description: QPCR assay for levels of MSH3 upon compound treatment in HEK293T or AD293 cells (fold-change of MSH3 transcript, EC50 of MSH3 downregulation; total MSH3 exons 13/14, exons 20/21; Table 8). Type of experiment: cell-based. The conditions noted are these: Homo sapiens, fold-change of the MSH3 transcript, normalized to GAPDH; for mrna remaining at 1 µM: 1 μM compound; for mrna remaining at 10 µM: 10 μM compound. In short, it runs like this:
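MSH3 mRNA was quantified by TaqMan qPCR covering exons 13/14, exons 20/21, exon 13/PE14A and exon 20/PE21A, with GAPDH as reference. Cells used were HEK293T or AD293, treated with compound at 1 μM and […].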

As to `Cc1nn(C)nc1-c1cc(F)c2c(c1)C(=O)N(c1ccc(N3CC4CCC(C3)N4)nn1)C2` [Compound 658, 2-(6-(3,8-diazabicyclo[3.2.1]octan-3-yl)pyridazin-3-yl)-6-(2,5-dimethyl-2H-1,2,3-triazol-4-yl)-4-fluoroisoindolin-1-one], the mrna remaining at 1 µM is 132% and the mrna remaining at 10 µM is 51%.
Taken in the same sequence, the figures for `Cn1nc(Cl)c(-c2cc(F)c3c(c2)C(=O)N(c2ccc(N4CCC5CCC(C4)N5)nn2)C3)n1` (stereo not drawn) [Compound 659, 2-(6-(3,9-diazabicyclo[4.2.1]nonan-3-yl)pyridazin-3-yl)-6-(5-chloro-2-methyl-2H-1,2,3-triazol-4-yl)-4-fluoroisoindolin-1-one] were 142% and 57%.
Taken in the same sequence, the figures for `Cc1nn(C)nc1-c1cc(Cl)c2c(c1)C(=O)N(c1ccc(N(C)[C@H]3C[C@]4(C)CC[C@](C)(C3)N4)nn1)C2` [Compound 660, 4-chloro-6-(2,5-dimethyl-2H-1,2,3-triazol-4-yl)-2-(6-(((1R,3s,5S)-1,5-dimethyl-8-azabicyclo[3.2.1]octan-3-yl)(methyl)amino)pyridazin-3-yl)isoindolin-1-one] were 101% and 50%.
As to `Cc1nn(C)nc1-c1cc(Cl)c2c(c1)C(=O)N(c1ccc(O[C@H]3C[C@]4(C)CC[C@](C)(C3)N4)nn1)C2` [Compound 661, 4-chloro-6-(2,5-dimethyl-2H-1,2,3-triazol-4-yl)-2-(6-(((1R,3s,5S)-1,5-dimethyl-8-azabicyclo[3.2.1]octan-3-yl)oxy)pyridazin-3-yl)isoindolin-1-one], the mrna remaining at 1 µM worked out at 155% and the mrna remaining at 10 µM stood at 33%.
For the compound `Cc1nn(C)nc1-c1cc(F)c2c(c1)C(=O)N(c1ccc(N3CC4CC(C3)N4)nn1)C2` [Compound 662, 2-(6-(3,6-diazabicyclo[3.1.1]heptan-3-yl)pyridazin-3-yl)-6-(2,5-dimethyl-2H-1,2,3-triazol-4-yl)-4-fluoroisoindolin-1-one], the mrna remaining at 1 µM is 191% and the mrna remaining at 10 µM was 87%.
As for `CCN1CC2CN(c3ccc(N4Cc5c(F)cc(-c6nn(C)nc6C)cc5C4=O)nn3)CC2C1` (stereo not drawn) [Compound 663, 6-(2,5-dimethyl-2H-1,2,3-triazol-4-yl)-2-(6-(5-ethylhexahydropyrrolo[3,4-c]pyrrol-2(1H)-yl)pyridazin-3-yl)-4-fluoroisoindolin-1-one], the mrna remaining at 1 µM amounted to 232% and the mrna remaining at 10 µM was found to be 62%.
Regarding `Cc1nn(C)nc1-c1cc(Cl)c2c(c1)C(=O)N(c1ccc(OC3CC(C)(C)NC(C)(C)C3)nn1)C2` [Compound 664, 4-chloro-6-(2,5-dimethyl-2H-1,2,3-triazol-4-yl)-2-(6-((2,2,6,6-tetramethylpiperidin-4-yl)oxy)pyridazin-3-yl)isoindolin-1-one], the mrna remaining at 1 µM came out at 94% and the mrna remaining at 10 µM was 20%.
Turning to `Cc1nn(C)nc1-c1cc(F)c2c(c1)C(=O)N(c1ccc(N3CCN4CCC[C@H]4C3)nn1)C2` [Compound 665, (S)-6-(2,5-dimethyl-2H-1,2,3-triazol-4-yl)-4-fluoro-2-(6-(hexahydropyrrolo[1,2-a]pyrazin-2(1H)-yl)pyridazin-3-yl)isoindolin-1-one], the mrna remaining at 1 µM stood at 92% and the mrna remaining at 10 µM came to 32%.
Taken in the same sequence, the figures for `Cc1nn(C)nc1-c1cc(F)c2c(c1)C(=O)N(c1ccc(N3CC4(CNC4)C3)nn1)C2` [Compound 666, 2-(6-(2,6-diazaspiro[3.3]heptan-2-yl)pyridazin-3-yl)-6-(2,5-dimethyl-2H-1,2,3-triazol-4-yl)-4-fluoroisoindolin-1-one] were 97% and 59%.
Taken in the same sequence, the figures for `CN(C)C1CCN(c2ccc(N3Cc4c(F)cc(-c5nn(C)nc5Cl)cc4C3=O)nn2)CC1` [Compound 667, 6-(5-chloro-2-methyl-2H-1,2,3-triazol-4-yl)-2-(6-(4-(dimethylamino)piperidin-1-yl)pyridazin-3-yl)-4-fluoroisoindolin-1-one] were 92% and 71%.
Turning to `CC1CCN(c2ccc(N3Cc4c(F)cc(-c5nn(C)nc5Cl)cc4C3=O)nn2)CCN1` (stereo not drawn) [Compound 668, 6-(5-chloro-2-methyl-2H-1,2,3-triazol-4-yl)-4-fluoro-2-(6-(5-methyl-1,4-diazepan-1-yl)pyridazin-3-yl)isoindolin-1-one], the mrna remaining at 1 µM came out at 103% and the mrna remaining at 10 µM was determined as 13%.
`Cc1nn(C)nc1-c1cc(F)c2c(c1)C(=O)N(c1ccc(N3CCCNCC3)nn1)C2` [Compound 669, 2-(6-(1,4-diazepan-1-yl)pyridazin-3-yl)-6-(2,5-dimethyl-2H-1,2,3-triazol-4-yl)-4-fluoroisoindolin-1-one]: the mrna remaining at 1 µM turned out to be 97% and the mrna remaining at 10 µM was determined as 42%.
`Cn1nc(Cl)c(-c2cc(F)c3c(c2)C(=O)N(c2ccc(N4CC5(CNC5)C4)nn2)C3)n1` [Compound 670, 2-(6-(2,6-diazaspiro[3.3]heptan-2-yl)pyridazin-3-yl)-6-(5-chloro-2-methyl-2H-1,2,3-triazol-4-yl)-4-fluoroisoindolin-1-one]: the mrna remaining at 1 µM was determined as 92% and the mrna remaining at 10 µM stood at 44%.
On to `Cn1nc(Cl)c(-c2cc(F)c3c(c2)C(=O)N(c2ccc(N4CCN5CCC[C@H]5C4)nn2)C3)n1` [Compound 671, (S)-6-(5-chloro-2-methyl-2H-1,2,3-triazol-4-yl)-4-fluoro-2-(6-(hexahydropyrrolo[1,2-a]pyrazin-2(1H)-yl)pyridazin-3-yl)isoindolin-1-one], for which the mrna remaining at 1 µM was found to be 94% and the mrna remaining at 10 µM was 47%.
As for `Cc1nn(C)nc1-c1cc(F)c2c(c1)C(=O)N(c1ccc(N3CCC(N(C)C)CC3)nn1)C2` [Compound 672, 6-(2,5-dimethyl-2H-1,2,3-triazol-4-yl)-2-(6-(4-(dimethylamino)piperidin-1-yl)pyridazin-3-yl)-4-fluoroisoindolin-1-one], the mrna remaining at 1 µM was found to be 95% and the mrna remaining at 10 µM amounted to 74%.
Taken in the same sequence, the figures for `CN(c1ccc(N2Cc3c(F)cc(-n4nccn4)cc3C2=O)nn1)[C@H]1C[C@]2(C)CC[C@](C)(C1)N2` [Compound 673, 2-(6-(((1R,3s,5S)-1,5-dimethyl-8-azabicyclo[3.2.1]octan-3-yl)(methyl)amino)pyridazin-3-yl)-4-fluoro-6-(2H-1,2,3-triazol-2-yl)isoindolin-1-one] were 91% and 33%.
On to `Cc1nn(C)nc1-c1cc(F)c2c(c1)C(=O)N(c1ccc(N3C[C@@H](C)NC[C@@H]3C)nn1)C2` [Compound 674, 6-(2,5-dimethyl-2H-1,2,3-triazol-4-yl)-2-(6-((2S,5R)-2,5-dimethylpiperazin-1-yl)pyridazin-3-yl)-4-fluoroisoindolin-1-one], for which the mrna remaining at 1 µM was 98% and the mrna remaining at 10 µM turned out to be 49%.
Turning to `Cc1nn(C)nc1-c1cc(C#N)c2c(c1)C(=O)N(c1ccc(N(C)[C@H]3C[C@]4(C)CC[C@](C)(C3)N4)nn1)C2` [Compound 676, 6-(2,5-dimethyl-2H-1,2,3-triazol-4-yl)-2-(6-(((1R,3s,5S)-1,5-dimethyl-8-azabicyclo[3.2.1]octan-3-yl)(methyl)amino)pyridazin-3-yl)-1-oxoisoindoline-4-carbonitrile], the mrna remaining at 1 µM was determined as 48% and the mrna remaining at 10 µM was found to be 17%.
